# Legend:
# [1] = system: TP53 WT colon cancer cell line Ls174T; experiment: In vitro growth inhibition (CellTiter-Glo), Ls174T; assay type: cell-based; settings: Homo sapiens, 72 h exposure
# Description: (§1) Further testing was performed in colon cancer cell lines.
# (§2) Cells were grown in an appropriate medium for the cell line of interest; 96 well plates of each cell line were seeded with 5000 cells per well and left overnight. Drug exposed cells were incubated at 37 °C for 72 h. At the end of the 72 h exposure period, plates were removed for the CellTiter-Glo® assay. Luminescence was recorded on a Synergy 4.0. Assays were performed in triplicate.
# [2] = system: TP53 WT colon cancer cell line LoVo; experiment: In vitro growth inhibition (CellTiter-Glo), LoVo; assay type: cell-based; settings: Homo sapiens, 72 h exposure
# Description: as §1, §2
# RNR = molecular target: T1, RNR (Homo sapiens, UniProt P23921); experiment: RNR inhibition whole cell assay (HPLC of nucleotides from HeLa cell extracts); assay type: cell-based; settings: 50 µM, 16 h
# T1 construct: endogenous in cells; host or cells: HeLa
# T1 sequence (P23921 1-792): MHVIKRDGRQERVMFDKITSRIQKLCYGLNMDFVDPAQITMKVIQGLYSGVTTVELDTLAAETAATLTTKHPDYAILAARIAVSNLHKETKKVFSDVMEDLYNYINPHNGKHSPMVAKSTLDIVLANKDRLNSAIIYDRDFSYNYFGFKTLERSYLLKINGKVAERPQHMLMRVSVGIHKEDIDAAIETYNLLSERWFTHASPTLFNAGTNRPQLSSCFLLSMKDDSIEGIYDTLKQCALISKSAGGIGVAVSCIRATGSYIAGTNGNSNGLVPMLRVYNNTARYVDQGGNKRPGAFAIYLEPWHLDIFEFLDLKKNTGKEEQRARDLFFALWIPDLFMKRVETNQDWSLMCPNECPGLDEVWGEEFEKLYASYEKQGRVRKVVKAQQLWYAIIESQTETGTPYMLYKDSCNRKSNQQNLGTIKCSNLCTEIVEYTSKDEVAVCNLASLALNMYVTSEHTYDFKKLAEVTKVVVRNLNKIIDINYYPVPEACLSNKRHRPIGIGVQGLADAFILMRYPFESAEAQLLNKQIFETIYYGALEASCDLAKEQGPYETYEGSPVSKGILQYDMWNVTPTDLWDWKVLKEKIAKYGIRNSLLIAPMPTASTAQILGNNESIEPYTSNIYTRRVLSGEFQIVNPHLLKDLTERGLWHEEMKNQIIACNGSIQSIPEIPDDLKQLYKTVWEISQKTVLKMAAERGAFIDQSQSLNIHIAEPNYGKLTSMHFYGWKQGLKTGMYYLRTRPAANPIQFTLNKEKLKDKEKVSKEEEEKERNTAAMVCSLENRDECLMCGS
# T1 sequence (P31350 1-389 partner): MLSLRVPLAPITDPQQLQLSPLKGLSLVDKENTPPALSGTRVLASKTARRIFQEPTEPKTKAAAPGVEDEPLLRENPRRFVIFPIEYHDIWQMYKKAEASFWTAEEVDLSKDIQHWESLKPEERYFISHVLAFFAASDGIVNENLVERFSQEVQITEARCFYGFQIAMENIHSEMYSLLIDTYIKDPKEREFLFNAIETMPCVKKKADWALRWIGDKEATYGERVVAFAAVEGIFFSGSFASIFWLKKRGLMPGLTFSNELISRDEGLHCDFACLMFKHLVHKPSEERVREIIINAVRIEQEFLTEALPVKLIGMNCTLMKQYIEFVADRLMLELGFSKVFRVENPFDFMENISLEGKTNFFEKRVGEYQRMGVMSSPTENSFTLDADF
# Source text: Gemcitabine was used as a positive control.
# The method used to extract and quantitate nucleotides followed previously reported procedures.
# [3] = Hydrolysis of the 5-azacytosine base; assay type: physicochemical; settings: data not shown
# HL-60 = experiment: NCI 60 cell line panel: HL-60; assay type: cell-based, human; settings: Leukemia, TP53 null/mutant
# Source text: (§3) Details of the NCI 60 One Dose Screen are well known and available online.
# K-562 = experiment: NCI 60 cell line panel: K-562; assay type: cell-based, human; settings: Leukemia, TP53 null/mutant
# Source text: as §3
# SR = experiment: NCI 60 cell line panel: SR; assay type: cell-based, human; settings: Leukemia, TP53 wild type
# Source text: as §3
# EKVX = experiment: NCI 60 cell line panel: EKVX; assay type: cell-based, human; settings: NSCL, TP53 null/mutant
# Source text: as §3
# NCI-H226 = experiment: NCI 60 cell line panel: NCI-H226; assay type: cell-based, human; settings: NSCL, TP53 null/mutant
# Source text: as §3
# NCI-H460 = experiment: NCI 60 cell line panel: NCI-H460; assay type: cell-based, human; settings: NSCL, TP53 wild type
# Source text: as §3
# HCT-116 = experiment: NCI 60 cell line panel: HCT-116; assay type: cell-based, human; settings: Colon cancer, TP53 wild type
# Source text: as §3
# SF-268 = experiment: NCI 60 cell line panel: SF-268; assay type: cell-based, human; settings: CNS cancer, TP53 null/mutant
# Source text: as §3
# MALME-3M = experiment: NCI 60 cell line panel: MALME-3M; assay type: cell-based, human; settings: Melanoma, TP53 wild type
# Source text: as §3
# SK-MEL-5 = experiment: NCI 60 cell line panel: SK-MEL-5; assay type: cell-based, human; settings: Melanoma, TP53 wild type
# Source text: as §3
# UACC-257 = experiment: NCI 60 cell line panel: UACC-257; assay type: cell-based, human; settings: Melanoma, TP53 wild type
# Source text: as §3
# IGROV-1 = experiment: NCI 60 cell line panel: IGROV-1; assay type: cell-based, human; settings: Ovarian cancer, TP53 null/mutant
# Source text: as §3
# RXF 393 = experiment: NCI 60 cell line panel: RXF 393; assay type: cell-based, human; settings: Renal cancer, TP53 null/mutant
# Source text: as §3
# SN12C = experiment: NCI 60 cell line panel: SN12C; assay type: cell-based, human; settings: Renal cancer, TP53 null/mutant
# Source text: as §3
# DU-145 = experiment: NCI 60 cell line panel: DU-145; assay type: cell-based, human; settings: Prostate cancer, TP53 null/mutant
# Source text: as §3
# HS 578T = experiment: NCI 60 cell line panel: HS 578T; assay type: cell-based, human; settings: Breast cancer, TP53 null/mutant
# Source text: as §3
smiles,measurement,setting,value
"Nc1ncn([C@@H]2O[C@H](CO)[C@@H](O)C2(F)F)c(=O)n1 [NUC013, 5-aza-2′,2′-difluroro deoxycytidine]",GI50,[1],1.3 µM
same,GI50,[2],3 µM
same,ADP concentration,RNR,"13,845"
same,ATP concentration,RNR,"21,335"
same,CTP concentration,RNR,1279
same,GTP concentration,RNR,2006
same,UTP concentration,RNR,4070
same,"dATP, peak area",RNR,10.2 AU
same,"dGDP, peak area",RNR,5.6 AU
same,"dTDP, peak area",RNR,18.65 AU
same,"dUTP, peak area",RNR,8.8 AU
same,hydrolysis at the 6-position of the cytosine ring,[3],susceptible to hydrolysis
same,Growth (%) at 10 µM,HL-60,25.23%
same,Growth (%) at 10 µM,K-562,65.66%
same,Growth (%) at 10 µM,SR,14.99%
same,Growth (%) at 10 µM,EKVX,86.06%
same,Growth (%) at 10 µM,NCI-H226,52.34%
same,Growth (%) at 10 µM,NCI-H460,9.34%
same,Growth (%) at 10 µM,HCT-116,29.84%
same,Growth (%) at 10 µM,SF-268,65.39%
same,Growth (%) at 10 µM,MALME-3M,67.90%
same,Growth (%) at 10 µM,SK-MEL-5,70.84%
same,Growth (%) at 10 µM,UACC-257,77.54%
same,Growth (%) at 10 µM,IGROV-1,56.77%
same,Growth (%) at 10 µM,RXF 393,44.97%
same,Growth (%) at 10 µM,SN12C,51.65%
same,Growth (%) at 10 µM,DU-145,43.48%
same,Growth (%) at 10 µM,HS 578T,90.37%

# — publication PMC5620609 (Pharmaceuticals, 2017)
